Counter-ions that a name gives are not always drawn. Like-named read-outs stand apart in the source and are kept apart here.
Columns and labels:
[1] = Stabilizing agent: dried yeast cells containing SAM with added compound preserved at 25° C. for 7 days; assay type: physicochemical
Description: The yeast cells obtained in the Reference Example were suspended in deionized water in one-sixth (⅙) of the amount of the culture solution. Each of the compounds listed in table 3 (30% by weight in terms of dry weight) was separately added to the resultant, followed by freezing at −80° C. and lyophilization. Thus, dried yeast cells containing SAM were obtained.

[2] = Bioabsorbability of dried yeast cells containing (SS)-SAM, oral administration (Example 4); assay type: in vivo; conditions: SD rats, 20 g/L SAM at 5 ml/kg b.w.
Description: The resultant was orally administered to rats in the same manner such that comparative control examples were obtained. Before administration and 1, 2, 3, 5, or 8 hours after administration, blood was collected from the jugular vein without any anesthesia and with the use of heparin as an anticoagulant. The plasma components were collected via centrifugation. A 0.4 g/L trichloroacetic acid aqueous solution (40 μL) was added to the obtained plasma (200 μL), followed by mixing and centrifugation. The SAM concentration in the obtained supernatant was analyzed by HPLC. FIG. 1 and table 4 show the results.

[3] = Bioabsorbability of spray-dried yeast cells containing (SS)-SAM, oral administration (Example 5); assay type: in vivo; conditions: SD rats, 20 g/L SAM at 5 ml/kg b.w.
Description: The obtained dried yeast cells were matured in the presence of silica gel at 40° C. for 7 days. Thus, dried yeast cells containing (SS)-SAM were obtained. The obtained dried yeast cells containing (SS)-SAM were suspended in distilled water to result in an SAM concentration of 20 g/L. The resultant was orally administered to SD rats (male, 17 weeks old) at a dose of 5 ml/kg b.w. […] The resultant was orally administered to rats in the same manner such that comparative control examples were obtained. Before administration and 1, 2, 3, 5, or 8 hours after administration, blood collection was carried out from the jugular vein without any anesthesia and with the use of heparin as an anticoagulant. The plasma components were collected via centrifugation. A 0.4 g/L trichloroacetic acid aqueous solution (40 μL) was added to the obtained plasma (200 μl), followed by mixing and centrifugation. The SAM concentration in the obtained supernatant was analyzed by HPLC.

[4] = compound added at 30% by weight to dried yeast cells, 25° C., 7 days

Compound	SAM residual rate [1, 4]	further results
O=C(O)CC(O)C(=O)O (racemic) [DL-malic acid]	99.1%	–
CCC(N)C(=O)O (racemic) [DL-α-amino-n-butyrate]	96.8%	–
Cl.N [Ammonium chloride]	95.6%	–
N.O=P(O)(O)O [Ammonium dihydrogen phosphate]	–	SAM residual rate [1]: 93.6%
N.N.O=S(=O)(O)O [Ammonium sulfate]	87.5%	–
[Ca+2].[Cl-].[Cl-] [Calcium chloride]	–	SAM residual rate [1]: 93.7%
O=C(O)CC(O)(CC(=O)O)C(=O)O [Citric acid]	96.6%	–
O=S(=O)([O-])[O-].[Cu+2] [Copper sulfate]	–	SAM residual rate [1]: 94.2%
OC[C@H]1O[C@@H](O[C@H]2[C@H](O)[C@@H](O)[C@H](O)O[C@@H]2CO)[C@H](O)[C@@H](O)[C@@H]1O [D-cellobiose]	93.1%	–
CC(C)C[C@@H](N)C(=O)O [D-leucine]	91.9%	–
OC[C@@H](O)[C@H](O)[C@H](O)[C@@H](O)CO [Dulcitol]	92.2%	–
O.O.O.O.O.O.O.O=S(=O)([O-])[O-].[Fe+2] [Ferrous sulfate heptahydrate]	–	SAM residual rate [1]: 90.4%
OC[C@@H](O)[C@H](O)[C@H](O)[C@@H](O)CO [Galactitol]	90.7%	–
O=C[C@H](O)[C@@H](O)[C@@H](O)[C@H](O)CO [Galactose]	99.7%	–
O=C1O[C@H](CO)[C@@H](O)[C@H](O)[C@H]1O [Glucono-δ-lactone]	100.7%	–
NCC(=O)O [Glycine]	97.5%	–
O[C@H]1[C@H](O)[C@@H](O)[C@H](O)[C@@H](O)[C@H]1O [Inositol]	96.2%	–
C[C@H](N)C(=O)O [L-alanine]	86.9%	–
O=C1O[C@H]([C@@H](O)CO)C(O)=C1O [L-ascorbic acid]	90.0%	–
NC(=O)CC[C@H](N)C(=O)O [L-glutamine]	94.5%	–
CSCC[C@H](N)C(=O)O [L-methionine]	100.9%	–
O=C(CO)[C@@H](O)[C@H](O)[C@@H](O)CO [L-sorbose]	88.4%	–
O=C(O)[C@H](O)[C@@H](O)C(=O)O [L-tartaric acid]	88.1%	–

Compound	SAM residual rate [1, 4]	further results
C[C@@H](O)[C@H](N)C(=O)O [L-threonine]	92.0%	–
CC(C)[C@H](N)C(=O)O [L-valine]	89.7%	–
OC[C@@H](O)[C@@H](O[C@@H]1O[C@H](CO)[C@H](O)[C@H](O)[C@H]1O)[C@H](O)[C@@H](O)CO [Lactitol]	91.3%	–
O=S(=O)([O-])[O-].[Mg+2] [Magnesium sulfate]	–	SAM residual rate [1]: 101.6%
O=S(=O)([O-])[O-].[Mn+2] [Manganese sulfate]	95.0%	–
OC[C@@H](O)[C@@H](O)[C@H](O)[C@H](O)CO [Mannitol]	86.8%	–
CC(=O)N[C@H]1C(O)O[C@H](CO)[C@@H](O)[C@@H]1O (stereo partly drawn) [N-acetylglucosamine]	97.6%	–
O=C(O)c1cccnc1 [Nicotinic acid]	102.3%	–
NC(=O)c1cccnc1 [Nicotinic-acid amide]	97.3%	–
O=P(O)(O)O [Phosphoric acid]	89.3%	–
C[S+](CC[C@H](N)C(=O)[O-])C[C@H]1O[C@@H](n2cnc3c(N)ncnc32)[C@H](O)[C@@H]1O.Cc1ccc(S(=O)(=O)O)cc1.O=S(=O)(O)O.O=S(=O)(O)O (stereo partly drawn) [SAM/p-toluenesulfonic acid/sulfate]	–	Area under SAM concentration curve (AUC) ([2]; AUC at 8 hours after administration, dried yeast cells of Example 1): 3200 ng·h/mL; Maximum SAM concentration in plasma ([2]; dried yeast cells of Example 1 (lyophilized)): 0.771 µg/mL; Area under SAM concentration curve (AUC) ([3]; AUC at 8 hours after administration, dried yeast cells of Example 5): 3200 ng·h/mL; Maximum SAM concentration in plasma ([3]; dried yeast cells of Example 5 (spray dried)): 0.771 µg/mL
O=C([O-])[C@H](O)[C@@H](O)[C@H](O)[C@H](O)CO.[Na+] [Sodium gluconate]	89.1%	–
OC[C@@H](O)[C@@H](O)[C@H](O)[C@@H](O)CO [Sorbitol]	98.2%	–
OC[C@H]1O[C@@](CO)(O[C@H]2O[C@H](CO)[C@@H](O)[C@H](O)[C@H]2O)[C@@H](O)[C@@H]1O [Sucrose]	93.8%	–
O=S(=O)([O-])[O-].[Zn+2] [Zinc sulfate]	–	SAM residual rate [1]: 94.3%
Cc1ncc(C[n+]2csc(CCO)c2C)c(N)n1 [thiamine hydrochloride]	99.5%	–
Cellulose	92.0%	–
Ferric chloride hexahydrate	95.7%	–
Fructo-oligosaccharide	85.9%	–
Glycogen	94.6%	–
Inulin	93.1%	–
Isomalto-oligosaccharide	84.9%	–
